# Laboratory results from ChEMBL document CHEMBL1201862, “PubChem BioAssay data set” (2004).
# Activity calls are given as the source filed them.
# Tests used:
# [1] = biological target: T1, RNA-binding protein pos-1 (Caenorhabditis elegans, UniProt G5EF15); assay: inhibitors of POS-1/mex-3 RNA binding, dose response, biochemical, fluorescence polarization (AID 1964);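 also: purified POS-1 fused to maltose binding protein made in E. coli; potency of compounds blocking POS-1 binding to fluorescent RNA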
# T1 sequence (G5EF15 whole entry): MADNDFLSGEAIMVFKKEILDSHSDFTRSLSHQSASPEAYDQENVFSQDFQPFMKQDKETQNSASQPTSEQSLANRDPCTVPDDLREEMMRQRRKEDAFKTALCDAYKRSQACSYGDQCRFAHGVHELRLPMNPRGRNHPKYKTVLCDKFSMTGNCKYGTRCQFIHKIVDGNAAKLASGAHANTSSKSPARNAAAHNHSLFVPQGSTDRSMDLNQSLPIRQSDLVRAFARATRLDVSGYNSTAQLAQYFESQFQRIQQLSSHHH
# [2] = biological target: T2, Zinc finger protein mex-5 (Caenorhabditis elegans, UniProt Q9XUB2); assay: MEX-5/TCR-2 RNA interaction inhibitors, dose response, biochemical, C. elegans, fluorescence polarization (AID 1960)
# T2 sequence (Q9XUB2 whole entry): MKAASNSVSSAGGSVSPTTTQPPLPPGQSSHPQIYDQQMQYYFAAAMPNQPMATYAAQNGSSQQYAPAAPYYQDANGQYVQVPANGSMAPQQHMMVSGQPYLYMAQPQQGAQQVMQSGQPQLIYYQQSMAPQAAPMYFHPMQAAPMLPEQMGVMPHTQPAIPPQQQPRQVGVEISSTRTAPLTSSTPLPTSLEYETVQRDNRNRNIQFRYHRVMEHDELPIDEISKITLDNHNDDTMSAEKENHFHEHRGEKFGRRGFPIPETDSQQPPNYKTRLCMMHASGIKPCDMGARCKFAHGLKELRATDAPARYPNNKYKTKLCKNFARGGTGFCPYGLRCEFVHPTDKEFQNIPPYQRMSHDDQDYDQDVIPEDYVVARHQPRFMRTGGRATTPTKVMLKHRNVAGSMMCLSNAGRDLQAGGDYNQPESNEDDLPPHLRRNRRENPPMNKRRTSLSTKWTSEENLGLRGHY
# Large T antigen = Large T antigen (Simian virus 40, UniProt P03070); type: functional, Betapolyomavirus macacae;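 also: Confirmatory-stage PubChem screen for compounds that inhibit SV40 T antigen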
# [3] = biological target: Induced myeloid leukemia cell differentiation protein Mcl-1 (Homo sapiens, UniProt Q07820); type: functional
# [4] = biological target: T3, High affinity choline transporter 1 (Homo sapiens, UniProt Q9GZV3); assay: CHT inhibitors, dose response, cell-based, 5-point CRC, membrane potential dye (AID 504840); type: functional
# T3 sequence (Q9GZV3 whole entry): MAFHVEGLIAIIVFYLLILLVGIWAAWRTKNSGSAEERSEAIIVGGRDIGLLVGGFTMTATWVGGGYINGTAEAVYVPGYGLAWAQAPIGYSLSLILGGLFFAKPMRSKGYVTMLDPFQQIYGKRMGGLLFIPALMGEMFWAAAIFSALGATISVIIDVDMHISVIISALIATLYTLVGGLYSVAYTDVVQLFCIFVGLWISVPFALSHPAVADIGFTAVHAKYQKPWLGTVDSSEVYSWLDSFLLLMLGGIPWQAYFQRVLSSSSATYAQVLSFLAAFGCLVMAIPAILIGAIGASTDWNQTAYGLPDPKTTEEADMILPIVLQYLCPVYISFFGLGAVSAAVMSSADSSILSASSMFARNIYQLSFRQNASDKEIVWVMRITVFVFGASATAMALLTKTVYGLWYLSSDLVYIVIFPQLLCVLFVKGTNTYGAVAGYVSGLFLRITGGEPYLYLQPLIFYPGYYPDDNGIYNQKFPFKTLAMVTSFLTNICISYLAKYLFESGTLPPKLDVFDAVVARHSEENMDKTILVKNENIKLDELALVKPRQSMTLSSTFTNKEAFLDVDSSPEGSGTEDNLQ
# [5] = biological target: Heat shock protein HSP 90-alpha (Homo sapiens, UniProt P07900); type: functional, organism-based
# [6] = inhibitors of firefly luciferase expression or activity, dose response, H4 neuroglioma cells, luminescence (AID 1990); type: functional, cell-based
# [7] = Luminescence Cell-Based Dose Response HTS to Identify Inhibitors of 5'UTR Stem-Loop Driven Prion Protein mRNA Translation in H4 Neuroglioblastoma Cells. [Related pubchem assays: 1827 (Project Summary), 1813 (Primary HTS)]; type: functional
# [8] = inhibitors of SNCA 5'UTR-driven reporter translation, confirmation, H4 neuroglioma cells, luminescence (AID 1988); type: functional, cell-based
# [9] = biological target: T4, DNA repair protein RAD52 homolog (Homo sapiens, UniProt P43351); type: functional, biochemical
# T4 sequence (P43351 whole entry): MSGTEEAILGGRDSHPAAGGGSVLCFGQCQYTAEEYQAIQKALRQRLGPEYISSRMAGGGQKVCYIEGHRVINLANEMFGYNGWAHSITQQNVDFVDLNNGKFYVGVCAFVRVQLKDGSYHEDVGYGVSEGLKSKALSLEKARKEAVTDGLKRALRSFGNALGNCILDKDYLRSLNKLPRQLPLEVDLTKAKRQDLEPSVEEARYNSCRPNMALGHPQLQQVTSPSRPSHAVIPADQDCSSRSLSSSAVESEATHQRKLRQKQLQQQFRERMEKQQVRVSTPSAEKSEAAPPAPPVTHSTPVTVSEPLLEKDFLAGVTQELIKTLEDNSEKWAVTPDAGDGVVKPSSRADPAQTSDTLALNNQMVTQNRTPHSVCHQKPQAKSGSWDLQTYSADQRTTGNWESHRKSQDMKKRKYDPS
# [10] = microbe, parasite or virus in culture; type: functional; conditions: Mycobacterium tuberculosis
# [11] = Luminescence Cell-Based Dose Retest to Confirm Inhibitors of Cancer Stem Cells. [Related pubchem assays (depositor defined):AID2717, AID2721]; type: functional; conditions: Homo sapiens
# [12] = Shn3 3'UTR reporter inhibitors, dose response, cell-based, Clone20 osteoblasts, firefly luciferase, cherry-picked (AID 624132); type: functional;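 also: firefly luciferase luminescence from reporter carrying the Shn3 3'UTR in osteoblasts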
# [13] = control 3'UTR Renilla luciferase suppression, dose response, counter-screen for Shn3 inhibitor project, cell-based, Clone20-Shn3RL, cherry-picked (AID 624133); type: functional
# [14] = biological target: T5, Carboxy-terminal domain RNA polymerase II polypeptide A small phosphatase 1 (Homo sapiens, UniProt Q9GZU7); assay: inhibitors of CTDSP1, concentration-response testing, biochemical assay, absorbance-based, actives from ultra-high-throughput screening (AID 540297); type: functional
# T5 sequence (Q9GZU7 whole entry): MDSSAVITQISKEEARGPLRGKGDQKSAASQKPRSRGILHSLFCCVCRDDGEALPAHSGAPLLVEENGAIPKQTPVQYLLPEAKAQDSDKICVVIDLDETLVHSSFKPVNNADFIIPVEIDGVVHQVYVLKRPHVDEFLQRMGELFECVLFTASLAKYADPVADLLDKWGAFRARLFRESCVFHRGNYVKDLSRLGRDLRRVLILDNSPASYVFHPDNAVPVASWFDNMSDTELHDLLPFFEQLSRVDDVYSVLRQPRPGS
# Streptokinase A = biological target: T6, Streptokinase A (Streptococcus pyogenes serotype M1, UniProt P10520); assay: S. pyogenes streptokinase expression inhibitors, potency, dose response, plasminogen activation absorbance, OD405 (AID 1914); type: functional, Streptococcus pyogenes M1 GAS;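 also: secreted streptokinase activity via plasminogen activation per viability signal from cell pellet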
# T6 sequence (P10520 whole entry): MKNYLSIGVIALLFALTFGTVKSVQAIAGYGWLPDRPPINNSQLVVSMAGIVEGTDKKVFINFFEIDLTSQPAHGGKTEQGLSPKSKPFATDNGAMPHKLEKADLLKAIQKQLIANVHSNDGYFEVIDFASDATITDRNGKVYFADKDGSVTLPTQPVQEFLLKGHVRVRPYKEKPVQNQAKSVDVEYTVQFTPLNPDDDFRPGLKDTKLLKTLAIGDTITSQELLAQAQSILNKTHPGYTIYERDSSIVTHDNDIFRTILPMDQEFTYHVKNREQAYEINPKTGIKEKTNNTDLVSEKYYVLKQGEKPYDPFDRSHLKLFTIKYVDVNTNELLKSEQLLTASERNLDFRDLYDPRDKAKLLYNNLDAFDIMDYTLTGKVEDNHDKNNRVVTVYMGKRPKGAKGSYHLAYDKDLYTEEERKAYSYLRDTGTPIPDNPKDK
# [15] = biological target: T7, Rac GTPase-activating protein 1 (Homo sapiens, UniProt Q9H0H5); assay: MgcRacGAP GTPase-activating activity inhibitors, confirmation, biochemical, ADP Hunter fluorescence, primary and confirmatory (AID 624330); type: functional
# T7 sequence (Q9H0H5 whole entry): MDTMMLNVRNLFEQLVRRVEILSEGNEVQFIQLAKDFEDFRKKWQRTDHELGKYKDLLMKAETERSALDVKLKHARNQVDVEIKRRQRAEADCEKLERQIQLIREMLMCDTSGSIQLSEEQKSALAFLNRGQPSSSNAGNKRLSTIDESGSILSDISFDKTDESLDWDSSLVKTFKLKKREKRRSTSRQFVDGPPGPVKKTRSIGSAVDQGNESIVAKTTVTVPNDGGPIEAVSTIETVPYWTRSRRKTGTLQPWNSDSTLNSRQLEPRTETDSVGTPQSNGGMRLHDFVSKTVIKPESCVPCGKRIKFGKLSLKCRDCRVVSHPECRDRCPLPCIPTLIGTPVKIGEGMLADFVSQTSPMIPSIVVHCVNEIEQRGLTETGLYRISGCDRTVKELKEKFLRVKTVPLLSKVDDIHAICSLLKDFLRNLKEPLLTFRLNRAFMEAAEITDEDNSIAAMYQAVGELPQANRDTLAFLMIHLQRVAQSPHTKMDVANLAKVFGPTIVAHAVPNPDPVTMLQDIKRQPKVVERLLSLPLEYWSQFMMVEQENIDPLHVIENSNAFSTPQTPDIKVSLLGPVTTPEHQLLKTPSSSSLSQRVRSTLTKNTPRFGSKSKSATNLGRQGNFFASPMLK
# [16] = P. falciparum 3D7-ScDHODH growth inhibitors, dose response, SYBR Green, dry powder samples (AID 1159570); type: functional, cell-based;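 also: parasite growth measured after 72 hours of compound exposure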
# [17] = HepG2 cell cytotoxicity, dose response, cytotoxicity control, plate reader, dry powder samples (AID 1159569); type: functional, cell-based;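 also: inhibitor potency with signal falling toward the positive control level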
# [18] = P. falciparum Dd2 growth inhibitors, dose response, SYBR Green, cherry-picked samples (AID 1159567); type: functional, cell-based
# [19] = P. falciparum Dd2 growth inhibitors, dose response, SYBR Green, dry powder samples (AID 1159566); type: functional, cell-based;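 also: potency for growth inhibition with lower SYBR green DNA signal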
# [20] = P. falciparum ATP4 D1247Y mutant growth inhibitors, dose response, NITD609-resistant line, SYBR Green, dry powder (AID 1159571); type: functional, cell-based;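 also: parasites synchronized at ring stage by sorbitol before testing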
# Large T antigen, sequence (P03070 whole entry): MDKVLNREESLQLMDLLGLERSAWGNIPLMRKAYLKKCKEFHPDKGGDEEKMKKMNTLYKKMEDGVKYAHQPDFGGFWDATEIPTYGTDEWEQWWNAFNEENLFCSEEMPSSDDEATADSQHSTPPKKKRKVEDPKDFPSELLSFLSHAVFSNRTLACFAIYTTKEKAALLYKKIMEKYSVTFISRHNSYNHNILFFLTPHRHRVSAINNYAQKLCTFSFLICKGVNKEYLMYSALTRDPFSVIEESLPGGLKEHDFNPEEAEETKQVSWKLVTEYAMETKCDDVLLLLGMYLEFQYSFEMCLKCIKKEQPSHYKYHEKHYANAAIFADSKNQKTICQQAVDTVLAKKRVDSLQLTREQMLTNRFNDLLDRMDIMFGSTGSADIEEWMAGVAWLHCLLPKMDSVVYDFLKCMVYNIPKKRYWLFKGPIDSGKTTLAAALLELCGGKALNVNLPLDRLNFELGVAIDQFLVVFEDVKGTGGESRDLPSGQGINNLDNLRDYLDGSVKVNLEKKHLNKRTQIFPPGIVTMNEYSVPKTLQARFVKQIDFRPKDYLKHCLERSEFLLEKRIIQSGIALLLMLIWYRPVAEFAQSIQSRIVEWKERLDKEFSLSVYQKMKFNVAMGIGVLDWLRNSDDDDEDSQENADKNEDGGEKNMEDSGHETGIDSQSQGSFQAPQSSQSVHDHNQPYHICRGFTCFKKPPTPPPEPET
# Induced myeloid leukemia cell differentiation protein Mcl-1, sequence (Q07820 whole entry): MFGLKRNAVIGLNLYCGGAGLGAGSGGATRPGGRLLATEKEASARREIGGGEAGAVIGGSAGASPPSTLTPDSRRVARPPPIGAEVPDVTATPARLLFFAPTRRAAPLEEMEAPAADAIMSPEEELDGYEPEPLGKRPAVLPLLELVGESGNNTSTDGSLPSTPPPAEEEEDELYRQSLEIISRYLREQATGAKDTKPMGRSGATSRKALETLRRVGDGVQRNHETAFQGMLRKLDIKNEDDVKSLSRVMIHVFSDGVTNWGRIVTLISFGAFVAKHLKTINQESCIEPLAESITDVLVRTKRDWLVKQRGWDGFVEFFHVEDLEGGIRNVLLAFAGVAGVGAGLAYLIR
smiles,measurement,setting,value
O=C1NC(=O)N(c2ccccc2)C(=O)/C1=C\c1ccc2c3c(cccc13)CC2,EC50,[1],> 300 µM (not active)
same,EC50,[2],> 300 µM (not active)
same,IC50,Large T antigen,68.4 µM (active)
same,IC50,[3],5.04 µM (active)
Nc1ccc2c(c1)-c1ccccc1S(=O)(=O)N2,EC50,[1],> 300 µM (not active)
same,EC50,[2],12.2 µM (active)
same,IC50,Large T antigen,3.99 µM (active)
c1ccc(CCNc2c3c(nc4ncnn24)CCC3)cc1,IC50,[4],10.1 µM (active)
S=C(NCC1CCCO1)Nc1cc(Cl)c(Cl)cc1Cl (stereo unspecified),IC50,[4],14.5 µM (active)
CN(C)c1ccc(NC(=O)Cn2ncn3c(cc4ccccc43)c2=O)cc1,IC50,Large T antigen,29.6 µM (active)
same,IC50,[3],3.14 µM (active)
O=C(CC(n1cncn1)C(Cl)(Cl)Cl)c1ccc([N+](=O)[O-])cc1 (stereo unspecified),AC50,[5],4.15 µM (active)
CN(C)CC/C=C1\c2ccc(F)cc2Sc2cc(F)c(Cl)cc21,EC50,[6],> 120 µM (not active)
same,EC50,[7],45.6 µM (active)
same,EC50,[8],12.9 µM (active)
same,AC50,[9],9.75 µM (active)
c1ccc(CN2CCN(c3nc(NCc4ccco4)c4ccccc4n3)CC2)cc1,CC50,[10],24.4 µM (active)
same,AC50,[11],3.34 µM (active)
COc1cc(C#Cc2c(-c3cncn3C)n(C)c3ccc(-c4ccc(OC)nc4)cc23)cc(OC)c1,AC50,[11],4.95 µM (active)
same,AC50,[5],5.5 µM (active)
same,AC50,[12],20.5 µM (active)
same,AC50,[13],21.2 µM (active)
Cc1ccc(C(=O)O)cc1NC(=S)NC(=O)c1ccc(COc2ccccc2)cc1,IC50,[4],15.5 µM (active)
same,IC50,[14],6.25 µM (active)
CN1CCN(CCCCOc2ccccc2C=O)CC1,AC50,[9],15.8 µM (active)
CCOC(=O)C(C)Sc1nc(-c2cccs2)ccc1C#N (stereo unspecified),CC50,[10],38.9 µM (active)
COc1ccc(C2=CC3=C(Br)C(=O)C(C)(OC(=O)c4ccc(Cl)nc4)C(=O)C3=CO2)cc1 (stereo unspecified),EC50,[1],> 300 µM (not active)
same,EC50,[2],> 300 µM (not active)
same,IC50,Large T antigen,56.7 µM (active)
CCOC(=O)c1[n-]c2ccccc2c1[N+]#N,EC50,Streptokinase A,> 150 µM (not active)
same,AC50,[5],0.444 µM (active)
CCOC(=O)c1sc(NC(=O)CCN2C(=O)c3cccc([N+](=O)[O-])c3C2=O)c(C(=O)OCC)c1C,IC50,[4],5.98 µM (active)
O=C1C=CC(=O)N1c1ccc2ccccc2c1,AC50,[5],0.832 µM (active)
Cc1ccc(-c2csc(NC(=O)c3cccc(C)c3)c2C(=O)O)cc1,IC50,[4],11.8 µM (active)
COc1cc(C(=O)NC2CC(C)(C)CC(C)(C)C2)ccc1OC1CCN(C(C)=O)CC1,IC50,[4],13.8 µM (active)
C=C(C)CSc1nnc(CCCCCNC(=O)OC(C)(C)C)o1,IC50,[4],6.92 µM (active)
COc1cc(-c2cnc3c(NC=O)cc(-c4ccc(N5CCN(C)CC5)cc4)cn23)cc(OC)c1OC,AC50,[9],4.54 µM (active)
CC1(C)CC(=O)C(/C=N/c2ccc(O)cc2)=C(O)C1,IC50,Large T antigen,5.53 µM (active)
same,IC50,[15],17 µM (active)
O=C(CCn1cnc2ccccc21)N/N=C/c1ccc(O)cc1,IC50,Large T antigen,14.2 µM (active)
same,IC50,[15],51.6 µM (active)
COc1ccc2c3c(n(C)c2c1)[C@@H](CO)N(C(=O)Nc1ccc(F)cc1)CC31CCN(Cc2cccnc2)CC1,AC50,[16],1.37 µM (active)
same,AC50,[17],31.7 µM (active)
same,AC50,[18],0.819 µM (active)
same,AC50,[19],0.727 µM (active)
same,AC50,[20],1.12 µM (active)
